Results reported in patent US20140163023A1, “DIHYDROPYRROLO PYRIMIDINE DERIVATIVES AS MTOR INHIBITORS” (Cellzome Limited, priority 2011, published 2014).
Where a name gives a salt, the structure may show the parent alone.

Legend:
mTOR = target: T1, mTOR (Homo sapiens, UniProt P42345); test: mTOR kinobeads assay (competition binding in cell lysate, dot blot detection); conditions: 1:1 mix of Jurkat and Ramos cell lysates, read-out: Inhibition values (IC50 in μM) as determined in the kinobeads assay, mTor
T1 construct: endogenous in cells; host or cells: Jurkat (ATCC TIB-152, clone E6-1) and Ramos (ATCC CRL-1596), 1:1 lysate mix
Method: Determination of the Effect of the Compounds According to the Invention on mTOR
(§1) The compounds of the present invention as described were tested in the mTOR kinobeads assay as described below. Briefly, test compounds (at various concentrations) and the affinity matrix (1:1 mixture of beads with immobilized phenylthiazole ligand 1 and beads with immobilized phenylmorpholin-chromen ligand; WO 2009/098021) were added to cell lysate aliquots and allowed to bind to the proteins in the lysate sample. After the incubation time the beads with captured proteins were separated from the lysate. Bound proteins were then eluted and the presence of mTOR, PI3Kα, PI3Kβ, PI3Kγ, PI3Kδ and DNA-dependent protein kinase (DNA-PK) was detected and quantified using a specific antibody in a dot blot procedure and the Odyssey infrared detection system. Dose response curves for individual kinases were generated and IC50 values calculated. Kinobeads assays for PI3 kinases (WO-A 2008/015013) and for kinase selectivity profiling (WO 2009/098021) have been previously described.
(§2) Washing of Affinity Matrix
(§3) The affinity matrix was washed two times with 15 ml of 1×DP buffer containing 0.2% NP40 (IGEPAL® CA-630, Sigma, #13021) and then resupended in 5.5 ml of 1×DP buffer containing 0.2% NP40 (10% beads slurry).
(§4) 5×DP buffer: 250 mM Tris-HCl pH 7.4, 25% Glycerol, 7.5 mM MgCl2, 750 mM NaCl, 5 mM Na3VO4, filter the 5×-lysis buffer through 0.22 μm filter and store in aliquots at −80° C. The 5×DP buffer is diluted to 1×DP buffer containing 1 mM DTT and 25 mM NaF.
(§5) Preparation of Test Compounds
(§6) Stock solutions of test compounds were prepared in DMSO. In a 96 well plate 30 μl solution of diluted test compounds at 5 mM in DMSO were prepared. Starting with this solution a 1:3 dilution series (9 steps) was prepared. For control experiments (no test compound) a buffer containing 2% DMSO was used. Compound Pi-103 (Calbiochem catalogue number 528100) served as a positive control.
(§7) Cell Culture and Preparation of Cell Lysates
(§8) Jurkat cells (ATCC catalogue number TIB-152 Jurkat, clone E6-1) and Ramos cells (ATCC number CRL-1596) were grown in 1 litre Spinner flasks (Integra Biosciences, #182101) in suspension in RPMI 1640 medium (Invitrogen, #21875-034) supplemented with 10% Fetal Bovine Serum (Invitrogen) at a density between 0.15×10^6 and 1.2×10^6 cells/ml. Cells were harvested by centrifugation, washed once with 1×PBS buffer (Invitrogen, #14190-094) and cell pellets were frozen in liquid nitrogen and subsequently stored at −80° C.
(§9) Cells were homogenized in a Potter S homogenizer in lysis buffer: 50 mM Tris-HCl, 0.8% NP40, 5% glycerol, 150 mM NaCl, 1.5 mM MgCl2, 25 mM NaF, 1 mM sodium vanadate, 1 mM DTT, pH 7.5. One complete EDTA-free tablet (protease inhibitor cocktail, Roche Diagnostics, 1873580) per 25 ml buffer was added. The material was dounced 10 times using a mechanized POTTER S, transferred to 50 ml falcon tubes, incubated for 30 minutes on ice and spun down for 10 min at 20,000 g at 4° C. (10,000 rpm in Sorvall SLA600, precooled). The supernatant was transferred to an ultracentrifuge (UZ)-polycarbonate tube (Beckmann, 355654) and spun for 1 hour at 100.000 g at 4° C. (33.500 rpm in Ti50.2, precooled). The supernatant was transferred again to a fresh 50 ml falcon tube, the protein concentration was determined by a Bradford assay (BioRad) and samples containing 50 mg of protein per aliquot were prepared. The samples were immediately used for experiments or frozen in liquid nitrogen and stored frozen at −80° C.
(§10) Cell lysate (approximately 50 mg protein per plate) was thawed in a water bath at room temperature and then kept on ice. To the thawed cell lysate 1×DP 0.8% NP40 buffer containing protease inhibitors (1 tablet for 25 ml buffer; EDTA-free protease inhibitor cocktail; Roche Diagnostics 1873580) was added in order to reach a final protein concentration of 5 mg/ml total protein. For the kinobeads experiment a 1:1 mix of Jurkat and Ramos cell lysates was used. […]

PI3Kα = target: T2, PI3Kα (Homo sapiens, UniProt P42336); test: kinobeads assay, PI3Kα; format: binding; conditions: 1:1 mix of Jurkat and Ramos cell lysates, read-out: Inhibition values (IC50 in μM) as determined in the kinobeads assay, PI3Kα
T2 construct: endogenous in cells; host or cells: Jurkat (ATCC TIB-152, clone E6-1) and Ramos (ATCC CRL-1596), 1:1 lysate mix
Method: as §1, §2, §3, §4, §5, §6, §7, §8, §9
as §10, with “used. The diluted cell lysate was stored on ice.” for “used.”

PI3Kβ = target: T3, PI3Kβ (Homo sapiens, UniProt P42338); test: kinobeads assay, PI3Kβ; format: binding; conditions: 1:1 mix of Jurkat and Ramos cell lysates, read-out: Inhibition values (IC50 in μM) as determined in the kinobeads assay, PI3Kβ
T3 construct: endogenous in cells; host or cells: Jurkat (ATCC TIB-152, clone E6-1) and Ramos (ATCC CRL-1596), 1:1 lysate mix
Method: as §1, §2, §3, §4, §5, §6, §7, §8, §9
as §10, with “used. The diluted cell lysate was stored on ice.” for “used.”

PI3Kδ = target: T4, PI3Kδ (Homo sapiens, UniProt O00329); test: kinobeads assay, PI3Kδ; format: binding; conditions: 1:1 mix of Jurkat and Ramos cell lysates, read-out: Inhibition values (IC50 in μM) as determined in the kinobeads assay, PI3Kδ
T4 construct: endogenous in cells; host or cells: Jurkat (ATCC TIB-152, clone E6-1) and Ramos (ATCC CRL-1596), 1:1 lysate mix
Method: as §1, §2, §3, §4, §5, §6, §7, §8, §9
as §10, with “used. The diluted cell lysate was stored on ice.” for “used.”

PI3Kγ = target: T5, PI3Kγ (Homo sapiens, UniProt P48736); test: kinobeads assay, PI3Kγ; format: binding; conditions: 1:1 mix of Jurkat and Ramos cell lysates, read-out: Inhibition values (IC50 in μM) as determined in the kinobeads assay, PI3Kγ
T5 construct: endogenous in cells; host or cells: Jurkat (ATCC TIB-152, clone E6-1) and Ramos (ATCC CRL-1596), 1:1 lysate mix
Method: as §1, §2, §3, §4, §5, §6, §7, §8, §9
as §10, with “used. The diluted cell lysate was stored on ice.” for “used.”

[1] = target: T6, DNA-dependent protein kinase (DNA-PK) (Homo sapiens, UniProt P78527); test: kinobeads assay, DNA-PK; format: binding; conditions: 1:1 mix of Jurkat and Ramos cell lysates, read-out: Inhibition values (IC50 in μM) as determined in the kinobeads assay, DNA-PK
T6 construct: endogenous in cells; host or cells: Jurkat (ATCC TIB-152, clone E6-1) and Ramos (ATCC CRL-1596), 1:1 lysate mix
Method: as §1, §2, §3, §4, §5, §6, §7, §8, §9
as §10, with “used. The diluted cell lysate was stored on ice.” for “used.”

T4 sequence (O00329 whole entry): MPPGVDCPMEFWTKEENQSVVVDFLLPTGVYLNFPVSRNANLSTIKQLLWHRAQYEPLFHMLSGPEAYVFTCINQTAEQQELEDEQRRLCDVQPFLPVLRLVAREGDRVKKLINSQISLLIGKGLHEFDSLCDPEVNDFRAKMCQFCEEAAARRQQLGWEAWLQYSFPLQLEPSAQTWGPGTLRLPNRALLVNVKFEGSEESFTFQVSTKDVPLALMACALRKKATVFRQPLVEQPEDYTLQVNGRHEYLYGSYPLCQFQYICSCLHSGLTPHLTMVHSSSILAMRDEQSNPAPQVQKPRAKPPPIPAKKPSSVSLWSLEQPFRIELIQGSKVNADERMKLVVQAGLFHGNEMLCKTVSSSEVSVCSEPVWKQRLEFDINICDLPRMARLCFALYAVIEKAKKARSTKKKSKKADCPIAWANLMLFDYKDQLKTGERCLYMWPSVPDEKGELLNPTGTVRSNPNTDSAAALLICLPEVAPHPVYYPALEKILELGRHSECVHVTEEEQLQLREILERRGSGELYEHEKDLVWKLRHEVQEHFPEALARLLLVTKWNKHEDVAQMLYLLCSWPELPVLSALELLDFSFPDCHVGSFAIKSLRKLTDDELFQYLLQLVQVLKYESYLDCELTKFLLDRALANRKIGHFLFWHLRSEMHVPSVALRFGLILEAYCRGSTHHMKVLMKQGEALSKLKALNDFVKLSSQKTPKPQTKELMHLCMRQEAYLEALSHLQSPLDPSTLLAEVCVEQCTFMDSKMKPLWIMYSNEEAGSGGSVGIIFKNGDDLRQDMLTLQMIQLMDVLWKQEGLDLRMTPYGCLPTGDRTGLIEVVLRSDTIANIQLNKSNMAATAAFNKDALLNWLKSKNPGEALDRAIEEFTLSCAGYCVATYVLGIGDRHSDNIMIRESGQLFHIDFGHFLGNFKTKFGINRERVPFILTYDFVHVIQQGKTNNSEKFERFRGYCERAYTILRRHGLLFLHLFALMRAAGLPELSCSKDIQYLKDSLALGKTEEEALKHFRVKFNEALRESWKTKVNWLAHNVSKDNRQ
T4 sequence (P27986 whole entry partner): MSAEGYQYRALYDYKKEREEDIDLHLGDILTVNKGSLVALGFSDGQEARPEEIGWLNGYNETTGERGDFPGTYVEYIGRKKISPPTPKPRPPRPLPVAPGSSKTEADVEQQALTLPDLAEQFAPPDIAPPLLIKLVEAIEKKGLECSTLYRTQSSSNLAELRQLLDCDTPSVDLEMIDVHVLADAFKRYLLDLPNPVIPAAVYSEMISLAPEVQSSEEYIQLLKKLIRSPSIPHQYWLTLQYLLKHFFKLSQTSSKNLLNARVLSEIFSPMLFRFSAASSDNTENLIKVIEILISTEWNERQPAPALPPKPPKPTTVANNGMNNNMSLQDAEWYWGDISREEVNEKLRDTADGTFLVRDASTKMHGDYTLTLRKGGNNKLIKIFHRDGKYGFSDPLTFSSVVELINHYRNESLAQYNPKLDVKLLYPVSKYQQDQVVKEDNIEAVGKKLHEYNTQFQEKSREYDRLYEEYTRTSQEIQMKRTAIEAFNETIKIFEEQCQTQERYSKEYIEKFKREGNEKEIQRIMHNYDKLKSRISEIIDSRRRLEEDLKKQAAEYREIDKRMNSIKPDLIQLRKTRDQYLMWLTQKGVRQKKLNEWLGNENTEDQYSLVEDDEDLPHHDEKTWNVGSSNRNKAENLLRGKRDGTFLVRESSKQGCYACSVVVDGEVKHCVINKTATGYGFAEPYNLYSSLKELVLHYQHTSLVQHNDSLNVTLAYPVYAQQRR
T2 sequence (P42336 whole entry): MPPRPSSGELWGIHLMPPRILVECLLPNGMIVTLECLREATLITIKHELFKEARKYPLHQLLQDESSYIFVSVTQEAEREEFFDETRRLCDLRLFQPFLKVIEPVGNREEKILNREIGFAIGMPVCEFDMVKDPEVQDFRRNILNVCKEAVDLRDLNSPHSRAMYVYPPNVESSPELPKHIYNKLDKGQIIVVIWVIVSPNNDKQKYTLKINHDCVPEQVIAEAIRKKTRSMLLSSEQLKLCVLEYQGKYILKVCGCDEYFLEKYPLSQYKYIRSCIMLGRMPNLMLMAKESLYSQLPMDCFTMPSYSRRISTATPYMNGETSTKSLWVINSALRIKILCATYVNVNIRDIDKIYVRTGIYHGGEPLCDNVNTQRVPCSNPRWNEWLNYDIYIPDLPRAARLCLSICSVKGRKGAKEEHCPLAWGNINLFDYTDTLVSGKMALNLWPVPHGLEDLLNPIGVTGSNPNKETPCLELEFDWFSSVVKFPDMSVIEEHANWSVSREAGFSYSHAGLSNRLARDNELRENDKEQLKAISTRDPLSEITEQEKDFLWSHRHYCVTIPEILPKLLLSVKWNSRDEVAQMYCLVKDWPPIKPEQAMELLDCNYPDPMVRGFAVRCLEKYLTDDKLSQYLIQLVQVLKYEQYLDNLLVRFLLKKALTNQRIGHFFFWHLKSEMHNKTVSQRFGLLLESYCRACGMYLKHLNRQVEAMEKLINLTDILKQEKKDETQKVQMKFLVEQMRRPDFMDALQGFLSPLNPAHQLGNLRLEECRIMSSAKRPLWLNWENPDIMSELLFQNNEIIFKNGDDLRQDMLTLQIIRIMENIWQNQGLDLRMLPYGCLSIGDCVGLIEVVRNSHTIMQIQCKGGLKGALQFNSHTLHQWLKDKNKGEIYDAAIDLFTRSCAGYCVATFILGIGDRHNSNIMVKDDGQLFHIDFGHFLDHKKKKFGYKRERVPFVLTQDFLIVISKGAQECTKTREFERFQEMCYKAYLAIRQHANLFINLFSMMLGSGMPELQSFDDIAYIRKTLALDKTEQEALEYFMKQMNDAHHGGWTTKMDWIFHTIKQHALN
T2 sequence (P27986 whole entry partner): as the sequence (P27986 whole entry partner) above
T3 sequence (P42338 whole entry): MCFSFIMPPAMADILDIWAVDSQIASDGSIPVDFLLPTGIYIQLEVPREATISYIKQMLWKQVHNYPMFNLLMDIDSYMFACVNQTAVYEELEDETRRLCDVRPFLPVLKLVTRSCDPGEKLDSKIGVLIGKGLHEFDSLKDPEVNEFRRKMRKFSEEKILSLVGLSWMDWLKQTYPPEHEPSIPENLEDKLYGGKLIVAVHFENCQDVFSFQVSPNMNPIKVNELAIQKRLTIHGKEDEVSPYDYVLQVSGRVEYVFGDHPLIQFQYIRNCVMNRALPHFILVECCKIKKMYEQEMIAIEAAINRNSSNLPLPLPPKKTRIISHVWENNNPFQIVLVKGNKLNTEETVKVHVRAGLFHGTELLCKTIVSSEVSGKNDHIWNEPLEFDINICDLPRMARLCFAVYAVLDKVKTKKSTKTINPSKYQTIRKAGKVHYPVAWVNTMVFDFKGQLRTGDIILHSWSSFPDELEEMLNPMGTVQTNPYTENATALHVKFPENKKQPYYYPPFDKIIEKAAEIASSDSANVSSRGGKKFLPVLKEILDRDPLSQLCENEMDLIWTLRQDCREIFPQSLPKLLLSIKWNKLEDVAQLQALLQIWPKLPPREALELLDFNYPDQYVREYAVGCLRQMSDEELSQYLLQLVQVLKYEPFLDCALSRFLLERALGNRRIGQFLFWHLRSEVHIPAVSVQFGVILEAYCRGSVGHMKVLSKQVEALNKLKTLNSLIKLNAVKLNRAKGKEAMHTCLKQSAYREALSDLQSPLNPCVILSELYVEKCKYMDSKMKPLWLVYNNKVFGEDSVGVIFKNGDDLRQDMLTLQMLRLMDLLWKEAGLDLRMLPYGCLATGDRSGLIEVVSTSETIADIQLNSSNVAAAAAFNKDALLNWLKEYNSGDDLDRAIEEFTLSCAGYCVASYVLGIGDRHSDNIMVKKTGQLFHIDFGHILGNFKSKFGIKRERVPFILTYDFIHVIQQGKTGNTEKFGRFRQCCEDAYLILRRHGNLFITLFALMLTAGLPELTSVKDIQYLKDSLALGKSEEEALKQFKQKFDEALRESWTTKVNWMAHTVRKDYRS
T3 sequence (P27986 whole entry partner): as the sequence (P27986 whole entry partner) above
T5 sequence (P48736 whole entry): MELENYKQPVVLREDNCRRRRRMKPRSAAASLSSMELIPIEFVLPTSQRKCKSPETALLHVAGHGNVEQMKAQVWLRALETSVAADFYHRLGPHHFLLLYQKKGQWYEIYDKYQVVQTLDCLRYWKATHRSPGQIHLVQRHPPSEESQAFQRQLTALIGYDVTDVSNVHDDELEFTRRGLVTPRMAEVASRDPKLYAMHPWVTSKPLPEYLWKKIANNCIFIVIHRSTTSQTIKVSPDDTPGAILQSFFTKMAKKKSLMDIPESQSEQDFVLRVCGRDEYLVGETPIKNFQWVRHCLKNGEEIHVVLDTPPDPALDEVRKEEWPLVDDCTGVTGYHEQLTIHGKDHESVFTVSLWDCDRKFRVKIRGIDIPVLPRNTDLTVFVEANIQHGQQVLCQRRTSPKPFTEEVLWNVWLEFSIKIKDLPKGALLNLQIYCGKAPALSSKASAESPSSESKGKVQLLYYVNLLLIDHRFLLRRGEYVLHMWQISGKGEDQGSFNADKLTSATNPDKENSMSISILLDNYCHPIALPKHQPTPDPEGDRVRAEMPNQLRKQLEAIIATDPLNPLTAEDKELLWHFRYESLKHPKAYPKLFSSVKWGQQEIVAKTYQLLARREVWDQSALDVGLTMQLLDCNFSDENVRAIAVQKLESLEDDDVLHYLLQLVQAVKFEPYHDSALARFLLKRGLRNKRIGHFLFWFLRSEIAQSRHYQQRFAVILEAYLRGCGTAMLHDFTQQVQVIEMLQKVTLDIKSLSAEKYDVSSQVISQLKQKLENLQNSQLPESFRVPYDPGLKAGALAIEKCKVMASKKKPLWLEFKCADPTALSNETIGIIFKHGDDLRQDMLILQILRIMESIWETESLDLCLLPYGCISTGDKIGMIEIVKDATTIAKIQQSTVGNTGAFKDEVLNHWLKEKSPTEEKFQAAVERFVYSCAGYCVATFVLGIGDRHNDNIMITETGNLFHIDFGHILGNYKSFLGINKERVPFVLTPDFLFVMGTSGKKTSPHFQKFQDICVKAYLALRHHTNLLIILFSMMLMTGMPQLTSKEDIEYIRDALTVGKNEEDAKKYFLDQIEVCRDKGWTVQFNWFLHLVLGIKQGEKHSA

Structure (SMILES)	IC50 (mTOR)	IC50 (PI3Kα)	IC50 (PI3Kβ)	IC50 (PI3Kδ)	IC50 (PI3Kγ)	IC50 [1]
CC(C)N1Cc2nc(N3CCOC[C@@H]3C)nc(-c3ccc(NC(=O)NCCO)cc3)c2C1 [Example 34, (S)-1-(2-hydroxyethyl)-3-(4-(6-isopropyl-2-(3-methylmorpholino)-6,7-dihydro-5H-pyrrolo[3,4-d]pyrimidin-4-yl)phenyl)urea 2,2,2-trifluoroacetate]	0.1 to 1 µM	10 to 100 µM	10 to 100 µM	10 to 100 µM	10 to 100 µM	> 100 µM
O=C(NCCO)Nc1ccc(-c2nc(N3CC4CCC(C3)O4)nc3c2CNC3)cc1 [Example 43, 1-(4-(2-(8-oxa-3-azabicyclo[3.2.1]octan-3-yl)-6,7-dihydro-5H-pyrrolo[3,4-d]pyrimidin-4-yl)phenyl)-3-(2-hydroxyethyl)urea hydrochloride]	≤ 0.1 µM	> 100 µM	> 100 µM	> 100 µM	> 100 µM	1 to 10 µM
CCNC(=O)N1Cc2nc(N3CCOC[C@@H]3C)nc(-c3ccc(NC(=O)NCCO)cc3)c2C1 [Example 37, (S)—N-ethyl-4-(4-(3-(2-hydroxyethyl)ureido)phenyl)-2-(3-methylmorpholino)-5H-pyrrolo[3,4-d]pyrimidine-6(7H)-carboxamide]	0.1 to 1 µM	1 to 10 µM	10 to 100 µM	10 to 100 µM	10 to 100 µM	10 to 100 µM
C[C@H]1COCCN1c1nc2c(c(-c3ccc(NC(=O)NC4CC4)cc3)n1)CNC2 [Example 1, (S)-1-cyclopropyl-3-(4-(2-(3-methylmorpholino)-6,7-dihydro-5H-pyrrolo[3,4-d]pyrimidin-4-yl)phenyl)urea]	0.1 to 1 µM	10 to 100 µM	10 to 100 µM	10 to 100 µM	10 to 100 µM	> 100 µM
CCOC(=O)Nc1ccc(-c2nc(N3CCOC[C@@H]3C)nc3c2CNC3)cc1 [Example 10, (S)-ethyl (4-(2-(3-methylmorpholino)-6,7-dihydro-5H-pyrrolo[3,4-d]pyrimidin-4-yl)phenyl)carbamate]	10 to 100 µM	10 to 100 µM	> 100 µM	> 100 µM	> 100 µM	> 100 µM
CCNC(=O)Nc1ccc(-c2nc(N3CCOC[C@@H]3C)nc3c2CNC3)cc1 [Example 2, (S)-1-ethyl-3-(4-(2-(3-methylmorpholino)-6,7-dihydro-5H-pyrrolo[3,4-d]pyrimidin-4-yl)phenyl)urea]	0.1 to 1 µM	10 to 100 µM	10 to 100 µM	10 to 100 µM	10 to 100 µM	10 to 100 µM
CC(CO)NC(=O)Nc1ccc(-c2nc(N3CCOC[C@@H]3C)nc3c2CN(C(C)C)C3)cc1 (stereo partly drawn) [Example 51, 1-(1-hydroxypropan-2-yl)-3-(4-(6-isopropyl-2-((S)-3-methylmorpholino)-6,7-dihydro-5H-pyrrolo[3,4-d]pyrimidin-4-yl)phenyl)urea 2,2,2-trifluoroacetate]	1 to 10 µM	> 100 µM	> 100 µM	> 100 µM	> 100 µM	> 100 µM
C[C@H]1COCCN1c1nc2c(c(-c3ccc(NC(=O)NC4CC4)cc3)n1)CN(C(=O)CO)C2 [Example 22, (S)-1-cyclopropyl-3-(4-(6-(2-hydroxyacetyl)-2-(3-methylmorpholino)-6,7-dihydro-5H-pyrrolo[3,4-d]pyrimidin-4-yl)phenyl)urea]	0.1 to 1 µM	10 to 100 µM	10 to 100 µM	1 to 10 µM	10 to 100 µM	> 100 µM
O=C(Nc1ccc(-c2nc(N3CCOCC3)nc3c2CNC3)cc1)NC1CC1 [Example 5, 1-cyclopropyl-3-(4-(2-morpholino-6,7-dihydro-5H-pyrrolo[3,4-d]pyrimidin-4-yl)phenyl)urea]	0.1 to 1 µM	10 to 100 µM	10 to 100 µM	10 to 100 µM	10 to 100 µM	10 to 100 µM
COCC(=O)N1Cc2nc(N3CCOC[C@@H]3C)nc(-c3ccc(NC(=O)NC4CC4)cc3)c2C1 [Example 27, (S)-1-cyclopropyl-3-(4-(6-(2-methoxyacetyl)-2-(3-methylmorpholino)-6,7-dihydro-5H-pyrrolo[3,4-d]pyrimidin-4-yl)phenyl)urea]	1 to 10 µM	10 to 100 µM	10 to 100 µM	10 to 100 µM	> 100 µM	> 100 µM
C[C@H]1COCCN1c1nc2c(c(-c3ccc(NC(=O)NC4CC4)cc3)n1)CN(C(=O)CCN)C2 [Example 29, (S)-1-(4-(6-(3-aminopropanoyl)-2-(3-methylmorpholino)-6,7-dihydro-5H-pyrrolo[3,4-d]pyrimidin-4-yl)phenyl)-3-cyclopropylurea]	1 to 10 µM	10 to 100 µM	10 to 100 µM	10 to 100 µM	10 to 100 µM	> 100 µM
C[C@H]1COCCN1c1nc2c(c(-c3ccc(NC(=O)Nc4ccncc4)cc3)n1)CNC2 [Example 24, (S)-1-(4-(2-(3-methylmorpholino)-6,7-dihydro-5H-pyrrolo[3,4-d]pyrimidin-4-yl)phenyl)-3-(pyridin-4-yl)urea]	1 to 10 µM	10 to 100 µM	10 to 100 µM	10 to 100 µM	10 to 100 µM	> 100 µM
C[C@H]1COCCN1c1nc2c(c(-c3ccc(NC(=O)NC4CC4)cc3)n1)CN(C)C2 [Example 11, (S)-1-cyclopropyl-3-(4-(6-methyl-2-(3-methylmorpholino)-6,7-dihydro-5H-pyrrolo[3,4-d]pyrimidin-4-yl)phenyl)urea]	0.1 to 1 µM	10 to 100 µM	10 to 100 µM	10 to 100 µM	10 to 100 µM	10 to 100 µM
C[C@H]1COCCN1c1nc2c(c(-c3ccc(NC(=O)NC4CC4)cc3)n1)CN(C1CC1)C2 [Example 14, (S)-1-cyclopropyl-3-(4-(6-cyclopropyl-2-(3-methylmorpholino)-6,7-dihydro-5H-pyrrolo[3,4-d]pyrimidin-4-yl)phenyl)urea]	1 to 10 µM	> 100 µM	> 100 µM	> 100 µM	> 100 µM	> 100 µM
